Measurements taken from patent US20240336594A1, “SIX-MEMBERED ARYL OR HETEROARYL AMIDES, AND COMPOSITION AND USE THEREOF” (BETTA PHARMACEUTICALS CO., LTD, priority 2021, published 2024).

The compounds below were run against T1, MALT1 (Homo sapiens, UniProt Q9UDY8) (assay: MALT1 protease inhibition assay (AMC-labeled peptide, fluorescence 360/460)). Conditions: substrate Ac-LRSR-AMC, 15 min preincubation, 90 min at 25° C.
T1 sequence (Q9UDY8 1-824): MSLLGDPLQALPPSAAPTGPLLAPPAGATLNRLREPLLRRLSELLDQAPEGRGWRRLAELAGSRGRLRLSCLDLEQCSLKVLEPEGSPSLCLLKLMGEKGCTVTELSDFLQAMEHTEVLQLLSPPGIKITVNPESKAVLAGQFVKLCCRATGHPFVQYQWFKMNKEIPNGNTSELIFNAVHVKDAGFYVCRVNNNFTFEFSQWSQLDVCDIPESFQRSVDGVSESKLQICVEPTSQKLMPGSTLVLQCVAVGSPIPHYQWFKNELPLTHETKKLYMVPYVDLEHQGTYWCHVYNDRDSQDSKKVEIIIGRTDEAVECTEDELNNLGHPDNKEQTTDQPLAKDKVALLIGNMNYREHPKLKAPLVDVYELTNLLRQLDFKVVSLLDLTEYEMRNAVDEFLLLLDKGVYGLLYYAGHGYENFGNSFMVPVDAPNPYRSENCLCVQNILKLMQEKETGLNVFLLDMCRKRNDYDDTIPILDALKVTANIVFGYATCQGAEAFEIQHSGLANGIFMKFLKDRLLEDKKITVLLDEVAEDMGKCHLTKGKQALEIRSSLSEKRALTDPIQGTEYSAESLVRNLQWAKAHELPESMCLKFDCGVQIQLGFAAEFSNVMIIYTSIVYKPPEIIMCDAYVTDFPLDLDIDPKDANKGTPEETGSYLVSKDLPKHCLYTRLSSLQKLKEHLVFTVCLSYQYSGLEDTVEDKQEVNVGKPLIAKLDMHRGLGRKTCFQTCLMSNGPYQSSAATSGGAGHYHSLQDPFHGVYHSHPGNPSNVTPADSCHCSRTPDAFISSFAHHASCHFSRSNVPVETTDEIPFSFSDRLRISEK
Format: biochemical
Procedure: Test compounds of the present invention (in 100% DMSO) were spotted into a 384-well dilution plate and serially diluted to the required concentrations with DMSO. Then, 0.2 μL of the test compounds were transferred into a new 384-well reaction plate by Echo following centrifugation. The MALT enzyme and its substrate, AMC-labeled peptide, were prepared in 1× protease buffer to yield 2× enzyme solution and 2× peptide solution. Subsequently, 10 μL of 2× enzyme solution was added into the 384-well reaction plate, incubating with the test compounds for 15 minutes at 25° C. After that, 10 μL of 2× peptide solution was added into the plate, continuing to incubate for 90 minutes at 25° C. The plate was then placed on an Envision multifunctional microplate reader to collect raw data, which would be converted into inhibition rate:
Inhibition rate %=(max−sample)/(max−min)*100%. • “max” values were measured using the reaction with enzyme but no compound treated, while “min” values were generated from control wells containing assay buffer without enzyme.
Curve fitting was done with Graphpad Prism software to determine the IC50 values. The specific experimental operations are as follows:
58.82 g Na Citrate·2H2O powder was added into 140 mL ddH2O and mixed in a 37° C. water bath. Once there were no visible particles, the remaining solutions were added successively with continuous stirring for 10 minutes. The final volume was adjusted to 200 mL. The buffer was stored at room temperature. DTT was added before use.
• 1) All test compounds were diluted from 10 mM stock solution into 1 mM in a 384 well dilution plate (labcyte, PP-0200); • 2) Ten various concentrations of the diluted compound solution above were obtained by serial dilution at an equal ratio of 1:3; • 3) 0.2 μL DMSO was transferred to two empty wells of the 384 reaction plate as blank controls without compound and enzyme respectively; • 4) 0.2 μL of the test compound at different concentrations was also transferred into the 384 reaction plate by Echo, with two duplicate wells for each concentration, then the plate was centrifuged at 1000 rpm for 1 min.
• 1) The MALT1 protease and AMC-labeled peptide was prepared in 1× protease buffer to obtain 2× enzyme solution and 2× peptide solution. 10 μL of 2× enzyme solution was added into the 384-well reaction plate. The plate was centrifuged at 1000 rpm for 1 min and incubated for 15 min at 25° C. • 2) 10 μL of 2× peptide solution was then transferred to the 384 reaction plate, and the plate was centrifuged at 1000 rpm for 1 min and incubate for 90 min at 25° C.

Structure (SMILES) | IC50 [nM]
CC1(CNC(=O)c2ncc(NC(=O)c3cc(F)c(-c4ccc(F)cc4N)cc3Cl)cc2Cl)CC1 [Example A436, 5-(2′-amino-5-chloro-2,4′-difluoro-[1,1′-biphenyl]-4-carboxamido)-3-chloro-N-((1-methylcyclopropyl)methyl) picolinamide] | 100 to 500
Nc1cc(F)ccc1-c1cc(Cl)c(C(=O)Nc2cnc(C(=O)NCC3CCS(=O)(=O)CC3)c(Cl)c2)cc1F [Example A437, 5-(2′-amino-5-chloro-2,4′-difluoro-[1,1′-biphenyl]-4-carboxamido)-3-chloro-N-((1,1-dioxidotetrahydro-2H-thiopyran-4-yl)methyl)picolinamide] | 10 to 100
CCCCNC(=O)c1ncc(NC(=O)c2cc(F)c(-c3ccc(F)cc3N)cc2Cl)cc1Cl [Example A438, 5-(2′-amino-5-chloro-2,4′-difluoro-[1,1′-biphenyl]-4-carboxamido)-N-butyl-3-chloropicolinamide] | 10 to 100
C#CCNC(=O)c1ncc(NC(=O)c2cc(F)c(-c3ccc(F)cc3N)cc2Cl)cc1Cl [Example A439, 5-(2′-amino-5-chloro-2,4′-difluoro-[1,1′-biphenyl]-4-carboxamido)-3-chloro-N-(prop-2-yn-1-yl) picolinamide] | > 500
O=C(Nc1cnc(-n2nccn2)c(C(F)(F)F)c1)c1cc(F)c(-c2c(Br)cncc2[N+](=O)[O-])cc1Cl [Example A440, N-(6-(2H-1,2,3-triazol-2-yl)-5-(trifluoromethyl)pyridin-3-yl)-4-(3-bromo-5-nitropyridin-4-yl)-2-chloro-5-fluorobenzamide] | 10 to 100
N#CCNC(=O)c1ncc(NC(=O)c2cc(F)c(-c3ccc(F)cc3N)cc2Cl)cc1Cl [Example A441, 5-(2′-amino-5-chloro-2,4′-difluoro-[1,1′-biphenyl]-4-carboxamido)-3-chloro-N-(cyanomethyl)picolinamide] | 10 to 100
Cc1cc(F)cc(N)c1-c1cc(Cl)c(C(=O)Nc2cnc(C(=O)NCC#N)c(Cl)c2)cc1F [Example A442, 5-(2′-amino-5-chloro-2,4′-difluoro-6′-methyl-[1,1′-biphenyl]-4-carboxamido)-3-chloro-N-(cyanomethyl)picolinamide] | 10 to 100
Nc1cc(F)ccc1-c1cc(Cl)c(C(=O)Nc2cnc(C(=O)NCC(F)(F)F)c(Cl)c2)cc1F [Example A443, 5-(2′-amino-5-chloro-2,4′-difluoro-[1,1′-biphenyl]-4-carboxamido)-3-chloro-N-(2,2,2-trifluoroethyl)picolinamide] | ≤ 10
CCNC(=O)c1ncc(NC(=O)c2cc(F)c(-c3ccc(F)cc3N)cc2Cl)cc1Cl [Example A444, 5-(2′-amino-5-chloro-2,4′-difluoro-[1,1′-biphenyl]-4-carboxamido)-3-chloro-N-ethylpicolinamide] | ≤ 10
O=C(Nc1cnc(-n2nccn2)c(Cl)c1)c1cc(F)c(-c2ccncc2C2CC2)cc1Cl [Example A445, 2-chloro-N-(5-chloro-6-(2H-1,2,3-triazol-2-yl)pyridin-3-yl)-4-(3-cyclopropylpyridin-4-yl)-5-fluorobenzamide] | 10 to 100
CC(C)(C)CNC(=O)c1ncc(NC(=O)c2cc(F)c(-c3ccc(F)cc3N)cc2Cl)cc1Cl [Example A446, 5-(2′-amino-5-chloro-2,4′-difluoro-[1,1′-biphenyl]-4-carboxamido)-3-chloro-N-neopentylpicolinamide] | ≤ 10
Nc1cc(F)ccc1-c1cc(Cl)c(C(=O)Nc2cnc(C(=O)NCc3ccoc3)c(Cl)c2)cc1F [Example A447, 5-(2′-amino-5-chloro-2,4′-difluoro-[1,1′-biphenyl]-4-carboxamido)-3-chloro-N-(furan-3-ylmethyl)picolinamide] | 10 to 100
COCCNC(=O)c1ncc(NC(=O)c2cc(F)c(-c3ccc(F)cc3N)cc2Cl)cc1Cl [Example A449, 5-(2′-amino-5-chloro-2,4′-difluoro-[1,1′-biphenyl]-4-carboxamido)-3-chloro-N-(2-methoxyethyl)picolinamide] | 10 to 100
CC(C#N)NC(=O)c1ncc(NC(=O)c2cc(F)c(-c3ccc(F)cc3N)cc2Cl)cc1Cl (stereo not drawn) [Example A450, 5-(2′-amino-5-chloro-2,4′-difluoro-[1,1′-biphenyl]-4-carboxamido)-3-chloro-N-(1-cyanoethyl)picolinamide] | 10 to 100
Nc1cc(F)ccc1-c1cc(Cl)c(C(=O)Nc2cnc(C(=O)NCC3CC(F)(F)C3)c(Cl)c2)cc1F [Example A451, 5-(2′-amino-5-chloro-2,4′-difluoro-[1,1′-biphenyl]-4-carboxamido)-3-chloro-N-((3,3-difluorocyclobutyl)methyl) picolinamide] | 10 to 100
Nc1cc(F)ccc1-c1cc(Cl)c(C(=O)Nc2cnc(C(=O)NCc3nnco3)c(Cl)c2)cc1F [Example A452, N-((1,3,4-oxadiazol-2-yl)methyl)-5-(2′-amino-5-chloro-2,4′-difluoro-[1,1′-biphenyl]-4-carboxamido)-3-chloropicolinamide] | 100 to 500

The remaining lines, values ahead:

IC50 [nM] | Structure (SMILES)
100 to 500 | CN(C)CCNC(=O)c1ncc(NC(=O)c2cc(F)c(-c3ccc(F)cc3N)cc2Cl)cc1Cl [Example A453, 5-(2′-amino-5-chloro-2,4′-difluoro-[1,1′-biphenyl]-4-carboxamido)-3-chloro-N-(2-(dimethylamino)ethyl) picolinamide]
100 to 500 | Nc1cc(F)ccc1-c1cc(Cl)c(C(=O)Nc2cnc(C(=O)NCC3CCC3)c(Cl)c2)cc1F [Example A454, 5-(2′-amino-5-chloro-2,4′-difluoro-[1,1′-biphenyl]-4-carboxamido)-3-chloro-N-(cyclobutylmethyl) picolinamide]
10 to 100 | Cn1ccc(CNC(=O)c2ncc(NC(=O)c3cc(F)c(-c4ccc(F)cc4N)cc3Cl)cc2Cl)n1 [Example A455, 5-(2′-amino-5-chloro-2,4′-difluoro-[1,1′-biphenyl]-4-carboxamido)-3-chloro-N-((1-methyl-1H-pyrazol-3-yl)methyl)picolinamide]
10 to 100 | N#CCNC(=O)c1ncc(NC(=O)c2cc(F)c(-c3ccc(F)nc3N)cc2Cl)cc1Cl [Example A456, 5-(4-(2-amino-6-fluoropyridin-3-yl)-2-chloro-5-fluorobenzamido)-3-chloro-N-(cyanomethyl)picolinamide]
> 500 | Nc1cc(F)ccc1-c1cc(Cl)c(C(=O)Nc2cnc(C(=O)NCC(F)(F)C(F)(F)C(F)(F)F)c(Cl)c2)cc1F [Example A458, 5-(2′-amino-5-chloro-2,4′-difluoro-[1,1′-biphenyl]-4-carboxamido)-3-chloro-N-(2,2,3,3,4,4,4-heptafluorobutyl) picolinamide]
100 to 500 | Nc1cc(F)ccc1-c1cc(Cl)c(C(=O)Nc2cnc(C(=O)NCCOC(F)(F)F)c(Cl)c2)cc1F [Example A459, 5-(2′-amino-5-chloro-2,4′-difluoro-[1,1′-biphenyl]-4-carboxamido)-3-chloro-N-(2-(trifluoromethoxy)ethyl)picolinamide]
10 to 100 | Nc1cc(F)ccc1-c1cc(Cl)c(C(=O)Nc2cnc(-n3nccn3)c(Cl)c2)cc1N [Example A460, 2,2′-diamino-5-chloro-N-(5-chloro-6-(2H-1,2,3-triazol-2-yl)pyridin-3-yl)-4′-fluoro-[1,1′-biphenyl]-4-carboxamide]
10 to 100 | Nc1cc(F)ccc1-c1cc(Cl)c(C(=O)Nc2cnc(C(=O)NCCF)c(Cl)c2)cc1F [Example A461, 5-(2′-amino-5-chloro-2,4′-difluoro-[1,1′-biphenyl]-4-carboxamido)-3-chloro-N-(2-fluoroethyl)picolinamide]
